Series [1] deals with Caco-2 cells. Nature of the series: ROS determination (flow cytometry). Format: cell-based, human. The note with it: Caco-2, 48 h, 0, 7.5, 1.5, and 30 μM. How it is done: Biosciences, San Jose, CA, USA)
The intracellular ROS generation was evaluated using The Total Reactive Oxygen Species
(ROS) Assay Kit. Caco2 cells (5x10^5 per well) were seeded in 6-well plates and were incubated for 24 h in a 37°C incubator with 5% CO2. Then cells were treated with compound 3 ([…]) for 48 h to induce production of ROS. Cells were harvested and incubated with 10 […] H2DCFDA for 30 min at 37°C incubator with 5% CO2, followed by resuspending three times with pre-warmed HBSS (2000 rpm×3 min). Total ROS levels in live cells were measured using a flow cytometry (BD Biosciences, San Jose, CA, USA).
For orientation: In flow cytometry, cells or beads pass a laser one at a time.

The test system of series [2] is Caco-2. Nature of the series: MTT assay. The following applies: for IC50: Homo sapiens. Format: cell-based, human. How it is done:
Human cancer cell lines (MDA-MB-231, LNCaP, Caco-2) and a human healthy cell line (HEK-293) were obtained from the European Collection of Cell Cultures. The cells were incubated in a humidified incubator (37 °C, 5% CO2) and cultured under standard conditions in Dulbecco’s modified Eagle medium (DMEM), 10% heat-inactivated fetal bovine serum, 100 U mL^–1 penicillin, 100 U mL^–1 streptomycin, and 4 mM L-glutamine. […] A cell culture medium was used to make further dilutions, while keeping the equivalent of DMF below 0.5% of the total volume.[94] […]
7. Cell Viability Inhibition Assay
MDA-MB-231, LNCaP, Caco-2 and HEK-293 cells (5x10^3 per well) seeded in 96-well plates to assess cell viability by the 3-[4,5-dimethylthiazol-2-yl]-2,5-diphenyltetrazolium bromide (MTT) assay for 24 h at 37°C. Then cells were treated with compound 3 at different concentrations (3-100 µM) at 100μl/well. […]
and etoposid was used as positive controls under identical conditions. After 24, 48 and 72 h incubation, 5 mg/ml MTT solution (20 μl/well) was added and cultured for another 4 h. Then, the supernatant was discarded and dimethyl sulfoxide was added (100 μl/well). The absorbance (A) was measured spectrophotometrically at 540 nm by a Microplate Reader (SpectraMax i3x).
A graph was plotted between the concentrations of the extract versus the percent viability. The […]
calculated from graph. All assays were performed in three replicates per concentration level. 11 […]
A general note: Tetrazolium dyes change colour on reduction, which living cells bring about.

Series [3] has as its target T1, BSA (bovine serum albumin) (Bos taurus, UniProt P02769).
T1 construct: purchased Merck/Sigma
The series can be described thus: BSA UV–vis absorption. Format: binding. The following applies: BSA 10 μM + compound 10 μM. How it is done:
The BSA–compound interactions are studied by comparing the UV–vis spectra (200–400 nm) of BSA (10 μM) alone and a mixture of [BSA (10 μM) + compound 3 (10 μM)] at room temperature in 10 mM Tris-HCl buffer with a pH of 7.4.[85]

Series [4] addresses T1, BSA (bovine serum albumin). Nature of the series: BSA fluorescence quenching. Format: binding. The following applies: for Kq (bimolecular quenching constant): Ksv = kqτ0, τ0 10 ns; for ΔG: van't Hoff equation from Kbin, BSA binding. How it is done:
BSA fluorescence spectral studies of the compound and related calculations were the same as those performed for the [CT-DNA + EB] quenching method described in Section 4.5. Detailed experimental procedures and the calculations of the binding data are given in the SI. […]
The quenching efficiency of the compound was analysed using the Stern-Volmer equation.
Io/I = 1 + K sv[Q] = 1 + k qτ0[Q] […]
where I o and I are the emission intensities of CT-DNA+EB complex in the absence and each […]
addition of compound, respectively and [Q] is the concentration of quencher. The Stern-Volmer […]
(quenching) constant, K sv was determined from the slope of the linear plot of I o/I versus [Q].
To have an insight into the kinetics of the competitive binding process, the bimolecular […]
quenching rate constant, k q values were also computed using the Stern-Volmer equation. […]
where n is the number of binding sites per nucleotide. 8
Fluorescence Spectral Studies
Quenching of fluorescence emission of BSA by compound was performed in order to determine […]
its binding constant. Stock concentration of BSA (5 μM) was prepared in 10 mM Tris- HCl […]
buffer at pH = 7.4. The emission spectra of 5 μM BSA solutions in the absence and presence of […]
compound of concentration ranging from 0 to 8 μM were acquired at room temperature. The […]
emission changes were recorded in the λ em range of 300 to 450 nm, with the excitation wavelength set at 280 nm. Each spectrum was recorded after an incubation time of 10 minutes.
The quenching efficiency of the compound was calculated using the Stern-Volmer equation as discussed above. The Stern-Volmer (quenching) constant, K sv was determined from the slope of the linear plot of I o/I versus [Q]. To have an insight into the kinetics of the competitive binding process, the bimolecular quenching rate constant, k q values were also computed using the same Stern Volmer equation, where τ 0 is the average fluorescence lifetime of the BSA alone is 10 nanoseconds. 9 Scatchard plots also gave the binding constant K bin as determined from the fluorescence titration using Scatchard equation. 10 The standard Gibbs free (ΔG) of compound

Series [5] has as its system Caco-2 cells. The series can be described thus: MMP determination (TMRE, flow cytometry). The note with it: Caco-2, 48 h, 7.5, 15, 30 μM. Format: cell-based, human. How it is done: Briefly, Caco-2 (5x10^5 per well) were seeded in 6-well plates for 24 h and either untreated or treated with a various concentrations of compound 3 (7.5, 15, 30 μM) for addional 48 h.
Following treatment, cells were harvested and were incubated with 50 nM BD PharmingenTM MitoStatus TMRE for 30 min at 37°C, 5% CO2, followed by resuspending twice with pre-warmed PBS (2000 rpm×3 min). Quantitative changes in mitochondrial membrane potential (MMP) at the early stage of cell apoptosis were measured using BD PharmingenTM MitoStatus TMRE (BD Biosciences, San Jose, CA, USA) and detected by flow cytometry (BD

This is an account of results in PMC10483525, “Synthesis, Structural Investigations, DNA/BSA Interactions, Molecular Docking Studies, and Anticancer Activity of a New 1,4-Disubstituted 1,2,3-Triazole Derivative” (ACS Omega, 2023).

T1 sequence (P02769 25-607): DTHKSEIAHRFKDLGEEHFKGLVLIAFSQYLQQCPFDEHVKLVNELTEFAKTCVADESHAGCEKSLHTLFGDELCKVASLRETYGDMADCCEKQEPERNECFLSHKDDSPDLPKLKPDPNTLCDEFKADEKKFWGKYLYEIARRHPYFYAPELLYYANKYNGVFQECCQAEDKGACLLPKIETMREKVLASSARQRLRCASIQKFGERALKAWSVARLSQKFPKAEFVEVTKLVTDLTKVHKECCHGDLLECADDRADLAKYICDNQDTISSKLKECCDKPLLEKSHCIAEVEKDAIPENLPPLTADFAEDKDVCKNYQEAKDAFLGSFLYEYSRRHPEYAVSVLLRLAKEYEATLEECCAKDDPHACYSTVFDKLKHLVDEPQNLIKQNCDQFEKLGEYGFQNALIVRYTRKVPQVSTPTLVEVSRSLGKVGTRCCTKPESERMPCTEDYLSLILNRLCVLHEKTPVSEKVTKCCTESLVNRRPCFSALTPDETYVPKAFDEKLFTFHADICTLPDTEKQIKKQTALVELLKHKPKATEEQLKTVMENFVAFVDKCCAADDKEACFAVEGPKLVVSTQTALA

In general, IC50 refers to the concentration that inhibits the measured activity by half. A higher IC50 goes with lower potency. Broadly, the melting point is the temperature of the solid-liquid transition. Turning to `O=Cc1ccc(OCc2cn(-c3ccc(Cl)c(Cl)c3)nn2)cc1O` [Compound 3, 4-((1-(3,4-Dichlorophenyl)-1H-1,2,3-triazol-4-yl)methoxy)-2-hydroxybenzaldehyde], the melting point was 144 to 145 °C. In series [1], the “ROS production (fluorescence intensity)” value is “increased the fluorescence intensity”. In series [2] (48 h, SI = IC50 on normal cells/IC50 on cancer cells), the SI HEK-293/Caco-2 stood at 1.46. In addition, in series [2] (Caco-2 cells), the “SI, times higher than cisplatin” value was found to be 10 times. 31.7 ± 0.34 µM corresponded to half-maximal inhibition in series [2] (Caco-2, 24 h) (IC50). Further, the IC50 in series [2] (Caco-2, 48 h) is 16.6 ± 0.27 µM. This compound came in with an IC50 in series [2] (Caco-2, 72 h) of 11.77 ± 0.01 µM. In series [3], the “Δλ (blue shift of BSA absorption)” value is listed as approximately 1 nm. Besides, in series [4] (BSA 5 μM, compound 0 to 8 μM), the “quenching of BSA fluorescence intensity at ∼345 nm” value is on record as 69.12% and the “red shift of BSA emission” value stood at 5 nm. In addition, the “Ksv (Stern–Volmer quenching constant)” value in series [4] (BSA 5 μM, compound 0–8 μM, λex 280 nm) is 1.99 × 10^5 M^–1. Further, in series [4] (BSA), the “Kq (bimolecular quenching constant)” value was 1.99 × 10^13 M^–1·s^–1. Further, in series [4] (BSA, listed as compound 3), the “Kq (bimolecular quenching constant)” value is given as ~10^13 M^–1·s^–1. Moreover, the “n (number of binding sites)” value in series [4] (Scatchard equation, BSA) is reported as 0.80. In series [4] (Scatchard equation, BSA 5 μM, read-out: Kbin (binding constant) (converted)), the Kd is 45.9 µM. In addition, the ΔG result in series [4] is given as “–24.75 kJ·mol^–1”. The compound also yielded a ΔG in series [4] (listed as compound 3) of −24.75 kJ·mol^–1. In series [5], the “loss of mitochondrial membrane potential (MMP)” value is reported as “significant increase in MMP loss”.
